# Results taken from US6444683B2, “17-azolyl steroids useful as androgen synthesis inhibitors” (University of Maryland at Baltimore, priority 1997, dated 2002).
# Like-named read-outs stand apart in the source and are kept apart here.
# What was measured:
# [1] = target: T1, Human P45017α (Homo sapiens, UniProt P05093); test: Inhibition of human testicular microsomal P45017α (lyase activity, release of C3H3COOH from [21-3H3]-17α-hydroxypregnenolone); type: biochemical; settings: for Inhibition of human P45017α, in words: human testicular microsomes
# T1 construct: Human testicular microsomes were prepared from human testes; from tissue; host or cells: human testes (untreated prostatic cancer patients undergoing orchidectomy), microsomal fraction
# T1 sequence (P05093 1-508): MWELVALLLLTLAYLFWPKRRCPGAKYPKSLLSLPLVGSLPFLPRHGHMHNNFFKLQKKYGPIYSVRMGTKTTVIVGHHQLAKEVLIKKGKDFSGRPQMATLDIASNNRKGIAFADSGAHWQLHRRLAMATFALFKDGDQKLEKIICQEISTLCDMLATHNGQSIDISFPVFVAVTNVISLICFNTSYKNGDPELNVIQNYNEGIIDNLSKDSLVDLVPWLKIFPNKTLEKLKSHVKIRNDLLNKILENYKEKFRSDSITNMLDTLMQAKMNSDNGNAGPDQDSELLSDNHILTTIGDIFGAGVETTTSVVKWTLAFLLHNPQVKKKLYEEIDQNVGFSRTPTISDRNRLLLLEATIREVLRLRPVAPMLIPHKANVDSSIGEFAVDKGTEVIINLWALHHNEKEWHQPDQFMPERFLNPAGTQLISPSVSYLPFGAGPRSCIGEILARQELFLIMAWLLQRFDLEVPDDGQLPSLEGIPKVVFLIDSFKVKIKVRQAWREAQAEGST
# Description: (§1) The microsomes were stored at −70° C. until assayed. Just before use, the thawed microsomes were diluted with 0.1 M phosphate buffer (pH 7.4) to appropriate concentrations.
# (§2) This assay measures only the lyase activity of the P45017α enzyme.
# (§3) IC50 values for inhibitors were calculated from the linear regression line in the plot of logit of lyase activity versus log of inhibitor concentration. […] Each inhibitor was examined at three concentrations.
# [2] = target: T2, human prostate 5α-reductase (Homo sapiens, UniProt P31213); test: Inhibition of human prostate 5α-reductase in BPH microsomes (conversion of [7-3H]-testosterone to DHT); type: biochemical
# T2 construct: The enzymatic reactions were initiated by addition of human BPH microsomes; from tissue; host or cells: human benign prostatic hyperplasia (BPH) tissue, microsomal fraction
# T2 sequence (P31213 1-254): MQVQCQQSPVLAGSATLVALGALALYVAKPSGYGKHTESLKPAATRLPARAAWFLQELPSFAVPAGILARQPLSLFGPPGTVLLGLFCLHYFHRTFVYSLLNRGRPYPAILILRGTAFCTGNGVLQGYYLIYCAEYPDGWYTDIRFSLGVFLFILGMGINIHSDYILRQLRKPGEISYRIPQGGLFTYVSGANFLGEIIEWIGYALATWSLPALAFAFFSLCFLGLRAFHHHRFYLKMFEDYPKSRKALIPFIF
# Description: […] The ethanol was evaporated to dryness under a gentle stream of air. […] The enzymatic reactions were initiated by addition of human BPH microsomes (about 180 μg of microsomal protein in 500 μl of phosphate buffer) in a total volume of 1.0 ml, and the incubations were performed for 10 min under oxygen in a shaking water bath at 37° C. The incubations were terminated by placing the sample tubes on ice and the addition of ether. Also, [^14C]-DHT (3000 dpm) and cold DHT (50 μg) were added to each tube as an internal standard and visualization marker, respectively. The steroids were extracted with ether and separated by TLC (chloroform:ether, 80:20) and visualized by exposure to iodine vapor. The extracts were analyzed for ^3H and ^14C using a liquid scintillation counter. The percentage conversion of [7-^3H]-testosterone to [^3H]-dihydrotestosterone was calculated and used to determine 5α-reductase activity.
# [3] = target: T3, Rat P45017α (Rattus norvegicus, UniProt P11715); test: Inhibition of rat testicular microsomal P45017α (lyase activity); type: biochemical
# T3 sequence (P11715 1-507): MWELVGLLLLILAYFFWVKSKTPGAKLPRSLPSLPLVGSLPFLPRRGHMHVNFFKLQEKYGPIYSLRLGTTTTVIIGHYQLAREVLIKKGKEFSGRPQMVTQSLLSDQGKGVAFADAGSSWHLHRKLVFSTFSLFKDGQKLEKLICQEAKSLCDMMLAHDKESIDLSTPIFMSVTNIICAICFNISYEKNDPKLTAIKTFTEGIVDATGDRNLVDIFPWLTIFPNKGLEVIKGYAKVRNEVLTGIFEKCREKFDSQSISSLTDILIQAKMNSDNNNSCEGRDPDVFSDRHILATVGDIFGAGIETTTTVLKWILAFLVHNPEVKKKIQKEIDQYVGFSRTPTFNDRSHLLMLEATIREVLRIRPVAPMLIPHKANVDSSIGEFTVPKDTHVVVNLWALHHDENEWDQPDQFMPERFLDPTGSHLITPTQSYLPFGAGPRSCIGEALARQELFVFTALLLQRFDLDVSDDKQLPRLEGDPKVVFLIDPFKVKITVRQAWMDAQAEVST
# Description: as §1, §2, §3
# [4] = inhibitor 150 nM, substrate 17α-hydroxypregnenolone 10 μM, mean of two determinations
SMILES,melting point,"Inhibition of human P45017α, in words [1]",IC50 [1] [nM],further results
CC(=O)O[C@H]1CC[C@@]2(C)C(=CC[C@@H]3[C@@H]2CC[C@]2(C)C(n4ncnn4)=CC[C@@H]32)C1,155 to 156 °C,,,
"C[C@]12CC[C@H](O)CC1=CC[C@@H]1[C@@H]2CC[C@]2(C)C(n3ncnn3)=CC[C@@H]12 [Compound 25, 3β-hydroxy-17-(2H-tetrazol-2-yl)androsta-5,16-diene]",195 to 198 °C,non-inhibitory,,"% Inhibition of human P45017α [1, 4]: N.I.^c"
"C[C@]12CC[C@H](O)CC1=CC[C@@H]1[C@@H]2CC[C@]2(C)C(n3cccn3)=CC[C@@H]12 [Compound 30, 3β-hydroxy-17-(1H-pyrazol-1-yl)androsta-5,16-diene]",197 to 199 °C,moderate inhibitor,,"inhibition at 0.15 µM ([1]; inhibitor 150 nM, substrate 17α-hydroxypregnenolone 10 μM, mean of two determinations, read-out: % Inhibition of human P45017α): 40%"
"C[C@]12CC[C@H](O)CC1=CC[C@@H]1[C@@H]2CC[C@]2(C)C(n3cnnn3)=CC[C@@H]12 [Compound 27, 3β-hydroxy-17-(1H-tetrazol-1-yl)androsta-5,16-diene]",200 to 204 °C (dec.),non-inhibitory,,"% Inhibition of human P45017α [1, 4]: N.I.^c"
"C[C@]12CC[C@H]3[C@@H](CC=C4C[C@@H](O)CC[C@@]43C)[C@@H]1CC[C@@H]2n1ccnc1 [Compound 13, 3β-Hydroxy-17β-(1H-imidazol-1-yl)androst-5-ene]",255 to 258 °C,,62,
"C[C@]12CC[C@H]3[C@@H](CCC4=CC(=O)CC[C@@]43C)[C@@H]1CC[C@@H]2n1ccnc1 [Compound 14, 17β-(1H-imidazol-1-yl)androst-4-ene-3-one]",,,36,IC50 [2]: 765 ± 100 nM
CC(=O)O[C@H]1CC[C@@]2(C)C(=CC[C@@H]3[C@@H]2CC[C@]2(C)C(n4ccnn4)=CC[C@@H]32)C1,158 to 160 °C,,,
"C[C@]12CCC(=O)C=C1CC[C@@H]1[C@@H]2CC[C@]2(C)C(n3ccnn3)=CC[C@@H]12 [Compound 21, 17-(1H-1,2,3-triazol-1-yl)androsta-4,16-diene-3-one]",118 to 120 °C,powerful inhibitors,19 ± 1,"Ki ([1]; Human P45017α Ki, from Lineweaver-Burk plots and slope replots, Km of 17α-hydroxypregnenolone 560 nM): 8 nM; IC50 ([2]; human BPH microsomes, mean ± SDM of at least two experiments, read-out: 5α-Reductase IC50): 198 ± 33 nM; Inhibition of 5α-reductase, in words ([2]; human prostate enzyme): potent inhibitors; Increase of potency towards the rat enzyme compared with human P45017α ([3]; from IC50 values, rat vs human testicular microsomes): 2 fold; Inhibition of rat testicular P45017α, in words ([3]; rat testicular microsomes): powerful inhibitors; IC50 ([3]; rat testicular microsomes, mean ± SDM of at least two experiments, read-out: Rat P45017α IC50): 9 ± 2 nM"
CC(=O)O[C@H]1CC[C@@]2(C)C(=CC[C@@H]3[C@@H]2CC[C@]2(C)C(n4nccn4)=CC[C@@H]32)C1,154 to 155 °C,,,
